The values below come from publication PMC7609050, “Photosynthesis without β-carotene” (eLife, 2020).

In the test the target is T1, PSII core (Nicotiana tabacum, UniProt P06411+P06413+P69556+P69686).
T1 construct: gene psbA; native PSII core complex, sucrose gradient band of alpha-DDM-solubilised thylakoids; some Lhcb contamination
Kind of test: HPLC and absorption-fit pigment analysis of isolated complex. Particulars: normalised to 37 Chls. It is filed as binding. The source says: HPLC and absorption-fit pigment analysis of isolated complex on PSII core

Each structure is given as a SMILES string.

Regarding `CC1=C(/C=C/C(C)=C/C=C/C(C)=C/C=C/C=C(C)/C=C/C=C(C)/C=C/C2=C(C)C(=O)[C@@H](O)CC2(C)C)C(C)(C)C[C@H](O)C1=O` [astaxanthin], the “Asta and its bypass products” value (complex from Asta plants (no beta-carotene), count includes by-products of astaxanthin synthesis) is recorded as 4.12 ± 0.01 molecules per complex.

Compound `CC1=C(/C=C/C(C)=C/C=C/C(C)=C/C=C/C=C(C)/C=C/C=C(C)/C=C/C2=C(C)CCCC2(C)C)C(C)(C)CCC1` [β-carotene] displayed a β-caro (complex from wild-type plants) of 3.93 ± 0.08 molecules per complex.
